According to PubChem BioAssay AID2060904 (Molecular Pharmacology Branch, DTP, NCI, 2025):

System: 349418-098-R-PDC complex spheroid viability
Assay: Anticancer human tumor 349418-098-R-PDC patient-derived lung adenocarcinoma cell line growth inhibition [RAS]
Settings: for IC50: curve of first compound; for viability, T/C: stronger effect = lower value
Method in brief: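 Multi-cell-type spheroids: tumor cells plus HUVEC endothelial cells and mesenchymal stem cells. RAS-pathway inhibitors were combined with targeted agents, each dosed in half-log steps down from clinical Cmax, or from 10 microM when Cmax was unknown.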

[1] = second compound 0.00316 µM, first compound 0.0316 µM
[2] = second compound 0.00316 µM, first compound 0.1 µM
[3] = second compound 0.00316 µM, first compound 0.316 µM
[4] = second compound 0.00316 µM, first compound 1 µM
[5] = second compound 0.00316 µM, first compound 3.16 µM
[6] = second compound 0.00316 µM, first compound 10 µM
[7] = second compound 0.01 µM, first compound 0.0316 µM
[8] = second compound 0.01 µM, first compound 0.1 µM
[9] = second compound 0.01 µM, first compound 0.316 µM
[10] = second compound 0.01 µM, first compound 1 µM
[11] = second compound 0.01 µM, first compound 3.16 µM
[12] = second compound 0.01 µM, first compound 10 µM
[13] = second compound 0.0316 µM, first compound 0.0316 µM
[14] = second compound 0.0316 µM, first compound 0.1 µM
[15] = second compound 0.0316 µM, first compound 0.316 µM
[16] = second compound 0.0316 µM, first compound 1 µM
[17] = second compound 0.0316 µM, first compound 3.16 µM
[18] = second compound 0.0316 µM, first compound 10 µM
[19] = second compound 0.1 µM, first compound 0.0316 µM
[20] = second compound 0.1 µM, first compound 0.1 µM
[21] = second compound 0.1 µM, first compound 0.316 µM
[22] = second compound 0.1 µM, first compound 1 µM
[23] = second compound 0.1 µM, first compound 3.16 µM
[24] = second compound 0.1 µM, first compound 10 µM
[25] = second compound 0.316 µM, first compound 0.0316 µM
[26] = second compound 0.316 µM, first compound 0.1 µM
[27] = second compound 0.316 µM, first compound 0.316 µM
[28] = second compound 0.316 µM, first compound 1 µM
[29] = second compound 0.316 µM, first compound 3.16 µM
[30] = second compound 0.316 µM, first compound 10 µM
[31] = second compound 1 µM, first compound 0.0316 µM
[32] = second compound 1 µM, first compound 0.1 µM
[33] = second compound 1 µM, first compound 0.316 µM
[34] = second compound 1 µM, first compound 1 µM
[35] = second compound 1 µM, first compound 3.16 µM
[36] = second compound 1 µM, first compound 10 µM
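Note: spheroids exposed to compound for seven days before viability readout.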

CCC(CC)c1cc(NC2CCC(N)C2)n2nccc2n1 (stereo unspecified) + C=CC(=O)N1CCN(c2nc(OCC3CCCN3C)nc3c(F)c(-c4nc(N)cc(C)c4C(F)(F)F)c(Cl)cc23)C(C)C1
IC50 (second compound 0.00316 µM): 720 nM | IC50 (second compound 0.01 µM): 996 nM | IC50 (second compound 0.0316 µM): 797 nM | IC50 (second compound 0.1 µM): 884 nM | IC50 (second compound 0.316 µM): 588 nM | IC50 (second compound 1 µM): 1100 nM | viability, T/C [1]: 114% | viability, T/C [2]: 108% | viability, T/C [3]: 76.1% | viability, T/C [4]: 43.2% | viability, T/C [5]: 3.31% | viability, T/C [6]: 2.99% | viability, T/C [7]: 110% | viability, T/C [8]: 86.8% | viability, T/C [9]: 84.8% | viability, T/C [10]: 53.8% | viability, T/C [11]: 3.18% | viability, T/C [12]: 2.92% | viability, T/C [13]: 85.3% | viability, T/C [14]: 114% | viability, T/C [15]: 88% | viability, T/C [16]: 40.8% | viability, T/C [17]: 2.8% | viability, T/C [18]: 2.99% | viability, T/C [19]: 73% | viability, T/C [20]: 80.5% | viability, T/C [21]: 102% | viability, T/C [22]: 45.8% | viability, T/C [23]: 3.01% | viability, T/C [24]: 3.2% | viability, T/C [25]: 111% | viability, T/C [26]: 88.1% | viability, T/C [27]: 75.7% | viability, T/C [28]: 31.7% | viability, T/C [29]: 3.42% | viability, T/C [30]: 2.54% | viability, T/C [31]: 78.8% | viability, T/C [32]: 71.9% | viability, T/C [33]: 85.4% | viability, T/C [34]: 54.3% | viability, T/C [35]: 3.58% | viability, T/C [36]: 4.86%

C[C@@H](NC(=O)c1ncnc(N)c1Cl)c1ncc(C(=O)Nc2cc(C(F)(F)F)c(Cl)cn2)s1 + C=CC(=O)N1CCN(c2nc(OCC3CCCN3C)nc3c(F)c(-c4nc(N)cc(C)c4C(F)(F)F)c(Cl)cc23)C(C)C1
IC50 (second compound 0.00316 µM): 954 nM | IC50 (second compound 0.01 µM): 1510 nM | IC50 (second compound 0.0316 µM): 2040 nM | IC50 (second compound 0.1 µM): 2180 nM | IC50 (second compound 0.316 µM): 3120 nM | IC50 (second compound 1 µM): 3860 nM | viability, T/C [1]: 102% | viability, T/C [2]: 124% | viability, T/C [3]: 88.9% | viability, T/C [4]: 50% | viability, T/C [5]: 39% | viability, T/C [6]: 32.6% | viability, T/C [7]: 78.6% | viability, T/C [8]: 115% | viability, T/C [9]: 68.8% | viability, T/C [10]: 59.1% | viability, T/C [11]: 41.3% | viability, T/C [12]: 31.3% | viability, T/C [13]: 108% | viability, T/C [14]: 113% | viability, T/C [15]: 65.1% | viability, T/C [16]: 62.8% | viability, T/C [17]: 50.1% | viability, T/C [18]: 29.6% | viability, T/C [19]: 80.6% | viability, T/C [20]: 106% | viability, T/C [21]: 85.3% | viability, T/C [22]: 60.9% | viability, T/C [23]: 46.8% | viability, T/C [24]: 41% | viability, T/C [25]: 60.6% | viability, T/C [26]: 113% | viability, T/C [27]: 85.7% | viability, T/C [28]: 67.1% | viability, T/C [29]: 52.8% | viability, T/C [30]: 31.2% | viability, T/C [31]: 65.5% | viability, T/C [32]: 111% | viability, T/C [33]: 84.2% | viability, T/C [34]: 64.1% | viability, T/C [35]: 58.4% | viability, T/C [36]: 30%

CC1(C)CCC(Nc2ncc(C(F)(F)F)c(-c3c[nH]c4c(P(C)(C)=O)c(C#N)ccc34)n2)CN1 (stereo unspecified) + CCn1c(-c2cccnc2C(C)OC)c2c3cc(ccc31)N1CCOC(CC(NC(=O)C(C(C)C)N(C)C(=O)C3(F)CCN(C(=O)C#CC(C)(C)N(C)C)CC3)C(=O)N3CCCC(N3)C(=O)OCC(C)(C)C2)C1
IC50 (second compound 0.000949 µM): < 0.949 nM | IC50 (second compound 0.003 µM): 1.31 nM | IC50 (second compound 0.00949 µM): < 0.949 nM | IC50 (second compound 0.03 µM): 1.25 nM | IC50 (second compound 0.0949 µM): 1.02 nM | IC50 (second compound 0.3 µM): 1.15 nM | viability, T/C (second compound 0.000949 µM, first compound 0.000949 µM): 36.9% | viability, T/C (second compound 0.000949 µM, first compound 0.003 µM): 19.5% | viability, T/C (second compound 0.000949 µM, first compound 0.00949 µM): 10.7% | viability, T/C (second compound 0.000949 µM, first compound 0.03 µM): 8.99% | viability, T/C (second compound 0.000949 µM, first compound 0.0949 µM): 8.61% | viability, T/C (second compound 0.000949 µM, first compound 0.3 µM): 7.56% | viability, T/C (second compound 0.003 µM, first compound 0.000949 µM): 60.5% | viability, T/C (second compound 0.003 µM, first compound 0.003 µM): 22.8% | viability, T/C (second compound 0.003 µM, first compound 0.00949 µM): 14.4% | viability, T/C (second compound 0.003 µM, first compound 0.03 µM): 9.79% | viability, T/C (second compound 0.003 µM, first compound 0.0949 µM): 9.1% | viability, T/C (second compound 0.003 µM, first compound 0.3 µM): 8.13% | viability, T/C (second compound 0.00949 µM, first compound 0.000949 µM): 49.8% | viability, T/C (second compound 0.00949 µM, first compound 0.003 µM): 19.5% | viability, T/C (second compound 0.00949 µM, first compound 0.00949 µM): 12.2% | viability, T/C (second compound 0.00949 µM, first compound 0.03 µM): 9.39% | viability, T/C (second compound 0.00949 µM, first compound 0.0949 µM): 9.09% | viability, T/C (second compound 0.00949 µM, first compound 0.3 µM): 6.88% | viability, T/C (second compound 0.03 µM, first compound 0.000949 µM): 59.3% | viability, T/C (second compound 0.03 µM, first compound 0.003 µM): 21.2% | viability, T/C (second compound 0.03 µM, first compound 0.00949 µM): 12.3% | viability, T/C (second compound 0.03 µM, first compound 0.03 µM): 8.37% | viability, T/C (second compound 0.03 µM, first compound 0.0949 µM): 9.21% | viability, T/C (second compound 0.03 µM, first compound 0.3 µM): 7.47% | viability, T/C (second compound 0.0949 µM, first compound 0.000949 µM): 52.1% | viability, T/C (second compound 0.0949 µM, first compound 0.003 µM): 22% | viability, T/C (second compound 0.0949 µM, first compound 0.00949 µM): 9.91% | viability, T/C (second compound 0.0949 µM, first compound 0.03 µM): 7.89% | viability, T/C (second compound 0.0949 µM, first compound 0.0949 µM): 8.73% | viability, T/C (second compound 0.0949 µM, first compound 0.3 µM): 7.62% | viability, T/C (second compound 0.3 µM, first compound 0.000949 µM): 55.7% | viability, T/C (second compound 0.3 µM, first compound 0.003 µM): 22.5% | viability, T/C (second compound 0.3 µM, first compound 0.00949 µM): 9.85% | viability, T/C (second compound 0.3 µM, first compound 0.03 µM): 9.41% | viability, T/C (second compound 0.3 µM, first compound 0.0949 µM): 8.24% | viability, T/C (second compound 0.3 µM, first compound 0.3 µM): 6.74%
